Experimental data as given in PMC8948939 (Pharmaceutics, 2022).

B1: rhCYP2C19 (Homo sapiens) (protein)
chain: MDPFVVLVLCLSCLLLLSIWRQSSGRGKLPPGPTPLPVIGNILQIDIKDVSKSLTNLSKIYGPVFTLYFGLERMVVLHGYEVVKEALIDLGEEFSGRGHFPLAERANRGFGIVFSNGKRWKEIRRFSLMTLRNFGMGKRSIEDRVQEEARCLVEELRKTKASPCDPTFILGCAPCNVICSIIFQKRFDYKDQQFLNLMEKLNENIRIVSTPWIQICNNFPTIIDYFPGTHNKLLKNLAFMESDILEKVKEHQESMDINNPRDFIDCFLIKMEKEKQNQQSEFTIENLVITAADLLGAGTETTSTTLRYALLLLLKHPEVTAKVQEEIERVIGRNRSPCMQDRGHMPYTDAVVHEVQRYIDLIPTSLPHAVTCDVKFRNYLIPKGTTILTSLTSVLHDNKEFPNPEMFDPRHFLDEGGNFKKSNYFMPFSAGKRICVGEGLARMELFLFLTFILQNFNLKSLIDPKDLDTTPVVNGFASVPPFYQLCFIPV
B2: rhCYP2C9 (Homo sapiens) (protein)
chain: MDSLVVLVLCLSCLLLLSLWRQSSGRGKLPPGPTPLPVIGNILQIGIKDISKSLTNLSKVYGPVFTLYFGLKPIVVLHGYEAVKEALIDLGEEFSGRGIFPLAERANRGFGIVFSNGKKWKEIRRFSLMTLRNFGMGKRSIEDRVQEEARCLVEELRKTKASPCDPTFILGCAPCNVICSIIFHKRFDYKDQQFLNLMEKLNENIKILSSPWIQICNNFSPIIDYFPGTHNKLLKNVAFMKSYILEKVKEHQESMDMNNPQDFIDCFLMKMEKEKHNQPSEFTIESLENTAVDLFGAGTETTSTTLRYALLLLLKHPEVTAKVQEEIERVIGRNRSPCMQDRSHMPYTDAVVHEVQRYIDLLPTSLPHAVTCDIKFRNYLIPKGTTILISLTSVLHDNKEFPNPEMFDPHHFLDEGGNFKKSKYFMPFSAGKRICVGEALAGMELFLFLTSILQNFNLKSLVDPKNLDTTPVVNGFASVPPFYQLCFIPV

Tests used:
[1] = tested on: human liver microsomes (HLM); details: mean over voriconazole 0.5, 1, 2, 3 µM
[2] = tested on: CYP2C19 (loratadine), CYP2C9 (sulfaphenazole), CYP3A4 (ketoconazole); assay: in vitro; details: human; for inhibition at 3 µM: pH 7.5; for activity: pH 7.5, % of Uninhibited Control (voriconazole N-oxidation velocity), HLM
[3] = substrate: C[C@@H](c1ncncc1F)[C@](O)(Cn1cncn1)c1ccc(F)cc1F; assay: not read; details: other: N-oxidation of voriconazole

Row | Molecule | Mean (SD) % of Uninhibited Control [1] | inhibition at 3 µM [2] [%] | activity ([2]; voriconazole 0.5 µM) [%] | activity ([2]; voriconazole 1 µM) [%] | activity ([2]; voriconazole 2 µM) [%] | activity ([2]; voriconazole 3 µM) [%] | Km ([3]; rhCYP2C19, pH 7.5) | Km ([3]; rhCYP2C9, pH 7.5)
1 | Nc1ccc(S(=O)(=O)Nc2ccnn2-c2ccccc2)cc1 [sulfaphenazole] | 63.8 (2.69) % | 36.2 | 64.8 | 60.7 | 62.6 | 66.9 | – | –
2 | CC(=O)N1CCN(c2ccc(OCC3COC(Cn4ccnc4)(c4ccc(Cl)cc4Cl)O3)cc2)CC1 (centres unmarked) [ketoconazole] | 52.4 (4.26) % | 47.6 | 49.8 | 48.4 | 53.6 | 57.9 | – | –
3 | B1 | – | – | – | – | – | – | 1.31 (0.862–1.75) µM | –
4 | B2 | – | – | – | – | – | – | – | 4.06 (3.32–4.81) µM
